# Source: PMC10507085, “Pharmacological inhibition of TBK1/IKKε blunts immunopathology in a murine model of SARS-CoV-2 infection” (Nature Communications, 2023)
# pKd: −log10 of the molar value.
# Experiments:
# Test in all cases: biochemical
# Set-up in all cases: KINOMEscan competition binding, DNA-tagged kinase against immobilised ligand, qPCR read-out
# ACVR2B = ACVR2B (Homo sapiens, UniProt Q13705); conditions: read-out: Percent Control
# CLK3 = CLK3 (Homo sapiens, UniProt P49761); conditions: read-out: Percent Control
# TRPM6 = TRPM6 (Homo sapiens, UniProt Q9BX84); conditions: read-out: Percent Control
# TRPM6, sequence (Q9BX84 whole entry): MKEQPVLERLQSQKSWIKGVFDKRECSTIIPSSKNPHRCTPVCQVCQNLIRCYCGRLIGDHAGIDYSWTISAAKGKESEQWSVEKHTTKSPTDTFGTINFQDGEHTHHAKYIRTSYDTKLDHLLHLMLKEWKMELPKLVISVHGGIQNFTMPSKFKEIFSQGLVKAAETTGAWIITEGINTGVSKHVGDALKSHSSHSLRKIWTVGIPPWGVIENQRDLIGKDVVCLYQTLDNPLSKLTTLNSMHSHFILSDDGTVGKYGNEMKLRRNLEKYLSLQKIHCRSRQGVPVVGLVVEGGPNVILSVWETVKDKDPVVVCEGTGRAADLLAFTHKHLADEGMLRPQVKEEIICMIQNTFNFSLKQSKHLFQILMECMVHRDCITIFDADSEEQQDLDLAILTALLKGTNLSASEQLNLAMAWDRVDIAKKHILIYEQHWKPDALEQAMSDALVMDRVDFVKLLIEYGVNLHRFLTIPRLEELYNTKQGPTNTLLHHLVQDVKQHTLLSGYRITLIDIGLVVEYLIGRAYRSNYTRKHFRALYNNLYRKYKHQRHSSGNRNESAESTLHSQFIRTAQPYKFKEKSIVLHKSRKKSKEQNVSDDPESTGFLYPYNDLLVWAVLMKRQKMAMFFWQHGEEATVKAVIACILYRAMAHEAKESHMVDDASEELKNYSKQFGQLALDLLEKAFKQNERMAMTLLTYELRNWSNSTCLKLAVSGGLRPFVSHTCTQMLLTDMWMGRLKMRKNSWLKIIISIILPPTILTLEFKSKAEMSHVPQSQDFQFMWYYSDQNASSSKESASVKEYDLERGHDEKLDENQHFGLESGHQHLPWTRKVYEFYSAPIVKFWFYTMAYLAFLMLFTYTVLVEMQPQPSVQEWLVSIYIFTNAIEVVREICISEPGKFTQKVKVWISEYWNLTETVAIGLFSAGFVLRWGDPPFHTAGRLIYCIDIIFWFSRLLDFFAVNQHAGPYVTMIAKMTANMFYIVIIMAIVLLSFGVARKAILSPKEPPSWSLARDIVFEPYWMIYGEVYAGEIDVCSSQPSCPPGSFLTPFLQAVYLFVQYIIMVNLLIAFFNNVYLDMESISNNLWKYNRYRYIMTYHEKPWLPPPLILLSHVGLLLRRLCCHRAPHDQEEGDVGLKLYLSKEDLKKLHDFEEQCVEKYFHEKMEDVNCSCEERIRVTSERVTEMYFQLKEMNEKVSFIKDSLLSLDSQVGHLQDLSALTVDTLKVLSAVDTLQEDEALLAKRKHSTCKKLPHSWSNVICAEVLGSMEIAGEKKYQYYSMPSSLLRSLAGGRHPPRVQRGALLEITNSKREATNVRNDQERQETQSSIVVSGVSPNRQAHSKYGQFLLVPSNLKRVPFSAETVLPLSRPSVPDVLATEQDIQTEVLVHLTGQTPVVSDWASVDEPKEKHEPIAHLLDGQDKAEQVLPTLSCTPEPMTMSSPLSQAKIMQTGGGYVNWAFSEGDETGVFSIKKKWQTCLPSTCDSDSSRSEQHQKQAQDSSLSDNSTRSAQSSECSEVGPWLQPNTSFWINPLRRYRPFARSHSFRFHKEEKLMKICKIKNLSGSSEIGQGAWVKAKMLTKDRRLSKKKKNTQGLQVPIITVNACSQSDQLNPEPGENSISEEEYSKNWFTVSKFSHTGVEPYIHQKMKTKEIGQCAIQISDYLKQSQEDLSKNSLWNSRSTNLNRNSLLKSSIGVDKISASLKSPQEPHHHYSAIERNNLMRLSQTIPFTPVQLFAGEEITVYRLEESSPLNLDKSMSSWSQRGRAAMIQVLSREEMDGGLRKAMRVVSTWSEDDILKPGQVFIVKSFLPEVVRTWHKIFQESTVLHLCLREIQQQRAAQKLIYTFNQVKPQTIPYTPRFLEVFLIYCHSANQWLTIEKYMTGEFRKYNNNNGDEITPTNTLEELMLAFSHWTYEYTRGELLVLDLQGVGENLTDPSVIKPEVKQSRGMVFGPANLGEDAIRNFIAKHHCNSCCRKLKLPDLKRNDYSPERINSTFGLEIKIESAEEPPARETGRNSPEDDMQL
# [1] = target: T1, RPS6KA5(Kin.Dom.2-C-terminal) (Homo sapiens, UniProt O75582); conditions: read-out: Percent Control
# T1 construct: Kin.Dom.2 C-terminal
# PRKAA2 = PRKAA2 (Homo sapiens, UniProt P54646); conditions: read-out: Percent Control
# MYLK4 = MYLK4 (Homo sapiens, UniProt Q86YV6); conditions: read-out: Percent Control
# FGFR2 = FGFR2 (Homo sapiens, UniProt P21802); conditions: read-out: Percent Control
# PIM1 = PIM1 (Homo sapiens, UniProt P11309); conditions: read-out: Percent Control
# TGFBR2 = TGFBR2 (Homo sapiens, UniProt P37173); conditions: read-out: Percent Control
# PRKD2 = PRKD2 (Homo sapiens, UniProt Q9BZL6); conditions: read-out: Percent Control
# IRAK4 = IRAK4 (Homo sapiens, UniProt Q9NWZ3); conditions: read-out: Percent Control
# MAP2K6 = MAP2K6 (Homo sapiens, UniProt P52564); conditions: read-out: Percent Control
# MARK4 = MARK4 (Homo sapiens, UniProt Q96L34); conditions: read-out: Percent Control
# WNK2 = WNK2 (Homo sapiens, UniProt Q9Y3S1); conditions: read-out: Percent Control
# MAP3K19 = MAP3K19 (Homo sapiens, UniProt Q56UN5)
# MAP3K19, sequence (Q56UN5 whole entry): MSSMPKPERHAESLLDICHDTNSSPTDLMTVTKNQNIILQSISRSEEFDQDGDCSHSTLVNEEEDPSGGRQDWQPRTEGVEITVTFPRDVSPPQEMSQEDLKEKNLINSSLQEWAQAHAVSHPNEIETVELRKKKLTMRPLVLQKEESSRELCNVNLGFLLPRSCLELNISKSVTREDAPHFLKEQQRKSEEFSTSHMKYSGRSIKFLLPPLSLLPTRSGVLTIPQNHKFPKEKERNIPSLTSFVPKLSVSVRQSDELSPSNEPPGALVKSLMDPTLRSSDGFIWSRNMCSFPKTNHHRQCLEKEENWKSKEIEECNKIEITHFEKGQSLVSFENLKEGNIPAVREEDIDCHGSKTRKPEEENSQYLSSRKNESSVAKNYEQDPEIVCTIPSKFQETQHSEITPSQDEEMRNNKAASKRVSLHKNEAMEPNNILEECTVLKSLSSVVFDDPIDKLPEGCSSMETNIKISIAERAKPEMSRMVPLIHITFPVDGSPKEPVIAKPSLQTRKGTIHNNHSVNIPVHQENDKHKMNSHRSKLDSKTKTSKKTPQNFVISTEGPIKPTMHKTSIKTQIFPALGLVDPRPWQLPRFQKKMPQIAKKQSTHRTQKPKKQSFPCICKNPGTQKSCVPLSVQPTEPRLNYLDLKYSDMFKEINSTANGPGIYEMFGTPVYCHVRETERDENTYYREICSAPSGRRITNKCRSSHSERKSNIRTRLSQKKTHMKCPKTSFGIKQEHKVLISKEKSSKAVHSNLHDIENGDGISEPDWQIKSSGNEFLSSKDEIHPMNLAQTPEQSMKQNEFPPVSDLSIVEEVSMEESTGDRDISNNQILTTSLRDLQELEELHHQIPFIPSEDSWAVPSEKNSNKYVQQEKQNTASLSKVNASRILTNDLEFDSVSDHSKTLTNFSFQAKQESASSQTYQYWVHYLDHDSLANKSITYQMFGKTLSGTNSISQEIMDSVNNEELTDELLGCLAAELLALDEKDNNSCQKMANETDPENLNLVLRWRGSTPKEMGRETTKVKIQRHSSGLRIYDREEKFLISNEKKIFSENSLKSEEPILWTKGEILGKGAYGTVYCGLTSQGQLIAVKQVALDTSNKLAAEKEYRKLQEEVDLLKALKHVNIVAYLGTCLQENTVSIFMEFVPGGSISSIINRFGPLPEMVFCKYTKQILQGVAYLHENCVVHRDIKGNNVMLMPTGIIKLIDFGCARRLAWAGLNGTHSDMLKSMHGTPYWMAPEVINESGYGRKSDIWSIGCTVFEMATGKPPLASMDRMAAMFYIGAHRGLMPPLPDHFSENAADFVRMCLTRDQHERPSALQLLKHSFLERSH
# Method in brief: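 RT-qPCR read-out of DNA-tagged kinase captured on immobilised ligand; less captured kinase means the compound displaced the kinase-ligand interaction. Compound was tested as an 11-point, 3-fold dilution series made in DMSO at 100× and brought to 1× final.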
# WNK3 = WNK3 (Homo sapiens, UniProt Q9BYP7); conditions: read-out: Percent Control
# PFCDPK1(P.falciparum) = target: T2, PFCDPK1(P.falciparum) (Plasmodium falciparum, UniProt P62344); conditions: read-out: Percent Control
# T2 construct: gene CDPK1
# MYO3B = MYO3B (Homo sapiens, UniProt Q8WXR4); conditions: read-out: Percent Control
# FGFR1 = FGFR1 (Homo sapiens, UniProt P11362); conditions: read-out: Percent Control
# FGFR1, sequence (P11362 whole entry): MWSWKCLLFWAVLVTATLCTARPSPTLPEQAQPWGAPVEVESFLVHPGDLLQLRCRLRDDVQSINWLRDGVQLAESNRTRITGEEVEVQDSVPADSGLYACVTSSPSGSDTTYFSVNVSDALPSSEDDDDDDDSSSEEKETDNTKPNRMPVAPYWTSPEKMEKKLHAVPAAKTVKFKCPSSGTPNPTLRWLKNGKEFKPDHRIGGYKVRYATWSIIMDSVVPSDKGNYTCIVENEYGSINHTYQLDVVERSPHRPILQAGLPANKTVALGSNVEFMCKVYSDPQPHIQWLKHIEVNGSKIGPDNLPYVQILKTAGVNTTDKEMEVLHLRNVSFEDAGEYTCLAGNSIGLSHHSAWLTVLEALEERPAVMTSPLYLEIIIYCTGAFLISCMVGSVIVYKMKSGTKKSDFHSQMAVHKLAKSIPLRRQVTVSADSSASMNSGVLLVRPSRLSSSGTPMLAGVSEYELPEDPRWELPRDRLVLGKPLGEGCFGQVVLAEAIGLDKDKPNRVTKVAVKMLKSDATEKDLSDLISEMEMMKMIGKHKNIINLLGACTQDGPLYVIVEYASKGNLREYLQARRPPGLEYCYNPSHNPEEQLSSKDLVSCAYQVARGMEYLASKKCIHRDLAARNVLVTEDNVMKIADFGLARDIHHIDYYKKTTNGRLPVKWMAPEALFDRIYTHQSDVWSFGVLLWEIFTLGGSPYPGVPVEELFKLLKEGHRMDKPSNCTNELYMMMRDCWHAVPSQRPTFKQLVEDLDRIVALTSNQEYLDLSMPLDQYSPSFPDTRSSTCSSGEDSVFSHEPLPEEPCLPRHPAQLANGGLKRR
# CSNK1E = CSNK1E (Homo sapiens, UniProt P49674); conditions: read-out: Percent Control
# CSNK1E, sequence (P49674 whole entry): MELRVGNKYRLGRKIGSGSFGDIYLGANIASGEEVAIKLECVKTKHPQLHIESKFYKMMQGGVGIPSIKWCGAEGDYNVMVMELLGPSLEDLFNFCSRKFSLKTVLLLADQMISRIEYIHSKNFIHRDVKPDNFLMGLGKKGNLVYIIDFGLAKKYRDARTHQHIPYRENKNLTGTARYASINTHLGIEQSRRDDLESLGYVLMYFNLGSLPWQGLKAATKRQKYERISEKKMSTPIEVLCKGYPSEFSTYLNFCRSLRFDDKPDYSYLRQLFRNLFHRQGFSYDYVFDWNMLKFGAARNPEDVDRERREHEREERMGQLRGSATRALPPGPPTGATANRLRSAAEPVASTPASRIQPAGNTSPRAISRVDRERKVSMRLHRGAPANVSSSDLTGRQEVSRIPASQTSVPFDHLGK
# ACVR2B, sequence (Q13705 whole entry): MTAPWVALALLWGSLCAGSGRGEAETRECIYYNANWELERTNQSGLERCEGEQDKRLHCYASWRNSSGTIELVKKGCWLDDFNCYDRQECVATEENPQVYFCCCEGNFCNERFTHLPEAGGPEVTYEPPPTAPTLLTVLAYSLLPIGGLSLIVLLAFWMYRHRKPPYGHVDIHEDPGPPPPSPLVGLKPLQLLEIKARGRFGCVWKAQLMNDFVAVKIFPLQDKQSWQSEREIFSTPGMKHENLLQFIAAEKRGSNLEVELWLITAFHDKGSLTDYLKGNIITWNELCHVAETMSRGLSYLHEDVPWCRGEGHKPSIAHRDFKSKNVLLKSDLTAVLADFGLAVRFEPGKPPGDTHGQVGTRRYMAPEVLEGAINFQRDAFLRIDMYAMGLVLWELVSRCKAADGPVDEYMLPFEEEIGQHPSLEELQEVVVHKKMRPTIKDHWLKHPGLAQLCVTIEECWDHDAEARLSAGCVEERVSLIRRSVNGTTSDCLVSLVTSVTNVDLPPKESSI
structure (smiles),measurement,setting,value
"Oc1ccc(C2=Cc3ccc(O)cc3OC2)cc1 [compound 1, idronoxil]",remaining binding at 10 µM,ACVR2B,53%
same,remaining binding at 10 µM,CLK3,70%
same,remaining binding at 10 µM,TRPM6,88%
same,remaining binding at 10 µM,[1],100%
same,remaining binding at 10 µM,PRKAA2,84%
same,remaining binding at 10 µM,MYLK4,26%
same,remaining binding at 10 µM,FGFR2,80%
same,remaining binding at 10 µM,PIM1,34%
same,remaining binding at 10 µM,TGFBR2,100%
same,remaining binding at 10 µM,PRKD2,94%
same,remaining binding at 10 µM,IRAK4,79%
same,remaining binding at 10 µM,MAP2K6,85%
same,remaining binding at 10 µM,MARK4,97%
same,remaining binding at 10 µM,WNK2,51%
same,pKd,MAP3K19,5.66
same,remaining binding at 10 µM,MAP3K19; read-out: Percent Control,12%
same,remaining binding at 10 µM,WNK3,80%
same,remaining binding at 10 µM,PFCDPK1(P.falciparum),80%
same,remaining binding at 10 µM,MYO3B,100%
same,remaining binding at 10 µM,FGFR1,92%
same,remaining binding at 10 µM,CSNK1E,74%
